Laboratory results taken from paper PMC9450014, “The evaluation of ADME and pharmacokinetic properties of decoquinate derivatives for the treatment of malaria” (Frontiers in Pharmacology, 2022).
pIC50: −log10 of the molar value. Read-outs that look alike come from different tables or passages of the source.

Columns and labels:
Pf NF54 = details: ref Beteck et al., 2018, cited from earlier work
[1] = Plasma protein binding (ultracentrifugation); format: in vitro ADME; details: pooled plasma; human plasma; read-out: Bound to plasma proteins (converted)
Description: (§1) Plasma protein binding was determined in pooled human plasma using an ultracentrifugation method. Stock solutions of test compounds were diluted in phosphate buffer and spiked into plasma in deep well 96-well plates. An aliquot of each compound was immediately precipitated with ice cold acetonitrile containing the internal standard carbamazepine (0.1 μM). These served as total concentration samples. After incubation in a water bath (37°C for 1 h), samples were transferred to ultracentrifuge tubes in duplicate and centrifuged for 4 h at 37°C and 30,000 g (Optima L-80XP, Beckman). Following centrifugation, the supernatant was transferred to the plate containing the total concentration samples and precipitated with ice cold acetonitrile containing the internal standard. Samples were analysed by LC-MS/MS (Shimadzu HPLC coupled with an AB Sciex 3200 Q TRAP MS). Non-specific binding in mouse liver microsomes (MLM) and human liver microsomes (HLM) were also determined with the ultracentrifugation method. Stock solutions of compounds (10 mM) were added in duplicate to microsome solution (0.5 mg/mL) in phosphate buffer (pH 7.4) to obtain a final drug concentration of 1 μM. The same method as for plasma protein binding was utilized. Analyte concentrations of all compounds were determined via LC-MS/MS (reverse phase Gemini NX-C18 column and Shimadzu HPLC coupled with an AB Sciex 3200 Q TRAP MS).

[2] = Passive permeability, parallel artificial membrane permeation assay (PAMPA); format: in vitro ADME; details: donor pH 6.5, acceptor pH 7.4, 4 h, read-out: Permeability (LogPapp) (converted)
Description: A parallel artificial membrane permeation assay (PAMPA) was used to assess the passive permeability of compounds with a 96-well MultiScreen filter plate ([…] pore size, Millipore). The filter plate was precoated with 5% hexadecane in hexane. Stock solutions of compounds were diluted to 1 mM in a donor buffer (pH 6.5). Lucifer yellow was added to the apical wells of the precoated MultiScreen plate containing compound donor solution. The donor buffer solutions were spiked with each test compound (1 mM). The acceptor-buffer solution was prepared by adding 10 μL DMSO to 990 μL acceptor buffer (pH 7.4) and 250 μL were added to the basolateral (acceptor) wells. The donor plate was carefully inserted into the acceptor plate and incubated at room temperature for 4 h. After the incubation period, 50 μL of samples from the acceptor plate were transferred to a round bottom 96-well plate, together with 30 μL of donor buffer for matrix matching. Theoretical equilibrium samples for each test compound were prepared by adding 150 μL of donor solutions to 250 μL acceptor solutions and left at room temperature. These theoretical equilibrium samples represent complete transfer of the compound into the donor well. For the theoretical equilibrium samples, 80 μL were added to the analysis plate. Lastly, 160 μL of the internal standard carbamazepine (0.1 μM) was added to all acceptor and equilibrium samples. A portion of the sample containing Lucifer yellow was analyzed on a BioRad iMark^TM Microplate Absorbance Reader (BioRad, Hercules, CA, United States; excitation 490 nm, emission 510–570 nm) to determine that P app was within the acceptable range (<50 nm/s). Samples were analysed using reverse phase Gemini NX-C18 column (5 μM, 2.1 mm × 50 mm) with a Shimadzu HPLC coupled with an AB Sciex 3200 Q TRAP MS). The Papp for each compound was determined using. C=VD × VA/(VD+VA) ×A×t where VA = volume of donor compartment (0.15 cm^3), VD = volume of acceptor compartment (0.25 cm^3), A = accessible filter area (0.24 cm^2) and t = incubation time (14,400 s). […]

[3] = Metabolic stability in human liver microsomes; format: in vitro ADME
Description: A 5-point metabolic stability assay in human and mouse liver microsomes were performed in duplicate in 96-well plates. Stock solution of RMB005, −059 and 060 prepared in DMSO were individually incubated at 37°C in mouse and pooled human liver microsomes (0.4 mg/mL). An aliquot was removed at 0 min and quenched with ice cold acetonitrile containing the internal standard carbamazepine (0.1 μM). The cofactor NADPH was added, and the reactions were subsequently stopped at time points 5, 10, 30, and 60 min by removal of an aliquot and quenching with ice cold acetonitrile containing the internal standard. The supernatant of all samples were analysed via LC-MS/MS analysis (reverse phase Gemini NX-C18 column and Shimadzu HPLC and AB Sciex 3200 Q TRAP MS). Calculation of in vitro t1/2, intrinsic clearance rate (CLint) and predicted in vivo clearance (CLH) was carried out using the following equations ([Obach 1999]). CLintClint= 0.693/t1/2(min) ×Volume of incubation (μL)/microsomal protein (μg) Where t1/2 is calculated in minutes.
Predicted in vivo CLH CLH=Q × fu(plasma)×CLint/fu(mic)/Q+ fu(plasma)× CLint/fu(mic) Where Q is the hepatic blood flow of mouse (90 mL/min/kg) or human (20.7 mL/min/kg). Fu(plasma) is the unbound drug fraction in the plasma and fu(mic) is the unbound fraction in the microsomes.
The equation below was used in the case of RMB059 and -060, where protein-binding data were not available. CLH=Q × CLint/Q+ CLint

[4] = Non-specific liver microsomal binding, MLM; format: in vitro ADME; details: mouse liver microsomes
Description: as §1

[5] = Lipophilicity, 1-octanol/phosphate buffer pH 7.4 (LogD7.4); format: physicochemical
Description: Stock solutions ([…]) of compounds were diluted to 100 μM in 96-well deep-well plate containing 1-octanol and phosphate buffer at pH 7.4. The plate was agitated on an orbital shaker at 750 rpm for 2 h. The organic and buffer layers of each well were transferred separately to a new analysis plate. The samples were analysed with the HPLC-diode array detection as described for kinetic solubility. Samples from both layers were analysed to determine LogD7.4 values.

[6] = Non-specific liver microsomal binding, HLM; format: in vitro ADME; details: human liver microsomes
Description: as §1

fraction unbound at 1 h [1]: 0.08 | Papp at 4 h, 1 mM [2]: 0.501 ×10⁻⁶ cm/s | CLint scaled ([3]; human, pooled liver microsomes, calculated from t1/2 in HLM, read-out: In vitro CLint HLM): 4 mL/min/kg | half-life ([3]; pooled liver microsomes, human liver microsomes, NADPH, read-out: Degradation half-life HLM): > 2.5 h | Estimated in vivo CLH HLM ([3]; protein binding data included): 12.6 mL/min/kg | Bound to microsomes [4]: 99% | logD at 2 h [5]: 3.2 | Bound to microsomes [6]: 99%
Structure (SMILES): CCCCCCCCCCOc1cc2c(=O)c(C(=O)NCCOCCO)c[nH]c2cc1OCC [RMB005]
pIC50 (Pf NF54; Pf NF54, read-out: NF54 IC50 (line in the PK figures, in vitro IC50 in the discussion)): 7.40 | pIC50 (Pf NF54; read-out: IC50 against Pf NF54): 7.39
